Laboratory results taken from publication PMC7954794, “Protein context shapes the specificity of SH3 domain-mediated interactions in vivo” (Nature Communications, 2021).

Columns and labels:
NCK2 [1] = experiment: NCK2 phase separation with 1,6-hexanediol (Fig. S7C); type: biochemical, mouse; settings: 0%, 5%, and 10% 1,6-hexanediol, 60 mM NaCl, n = 3
Description: (§1) Purified NCK2 proteins were diluted in GST buffer to identical concentrations. At 500 mM NaCl present in this buffer, all NCK2 constructs were completely soluble. Phase transition was initiated by dilution in imidazole buffer (10 mM imidazole (Bio Basic) pH 7.0, 1 mM DTT, 1 mM EGTA (Millipore Sigma), 1 mM MgCl2, 2.5% Glycerol (Bioshop Canada), 3% Dextran (Millipore Sigma)) containing various amount of NaCl so that the final concentration of NaCl would correspond to those in Supplementary Fig. 7B. For all the other experiments, the phase transition of NCK2 proteins was assessed at 60 mM NaCl. […] The pellets to supernatant fractions were used to quantify phase transition at 60 mM NaCl (7 replicates) via Coomassie protein quantification. The involvement of weak hydrophobic interactions in NCK2 driven phase transition was assessed using 1,6-Hexanediol (Millipore Sigma) at 60 mM NaCl. Imidazole buffer containing 0%, 1%, 5%, and 10% 1,6-Hexanediol was first prepared and phase transition was initiated and analyzed as described above. Finally, the competition of SH3-2 dependent homotypic NCK2 interaction with an SH3-2 binding peptide was assessed in the presence of 5, 15, 45, 90, 150, or 300 μM PAK1 peptide ([…]) in imidazole buffer with 60 mM NaCl. […]

NCK2 [2] = experiment: NCK2 phase separation with PAK1 peptide competition (Fig. S7A); type: biochemical, mouse; settings: 5, 15, 45, 90, 150, or 300 μM peptide, 60 mM NaCl; phase contrast microscopy
Description: as §1

| Compound | Effect on NCK2 phase separation (NCK2 [1]) | Effect on NCK2 phase separation (NCK2 [2]) |
| --- | --- | --- |
| OCCCCCCO [1,6-hexanediol] | disrupts all NCK2 SH3-shuffled proteins in a similar manner | – |
| DIQDKPPAPPMRNTST [PAK1 peptide] | – | Phase separation is inhibited |
